Results published in patent publication US4647457A, “Penicillanic acid derivatives” (Hoffmann-La Roche Inc., priority 1983, dated 1987).
Read-outs that look alike come from different tables or passages of the source.

Tests used:
[1] = biological target: β-lactamase from Proteus vulgaris 1028; experiment: β-lactamase inhibition, nitrocefin cleavage, isolated enzyme from P. vulgaris 1028; format: biochemical; conditions: 15 min pre-incubation, nitrocefin substrate, 37° C., pH 7.0
Procedure: (§1) Various β-lactamases can be isolated from penicillin-resistant or cephalosphorin-resistant strains of bacteria such as Klebsiella pneumoniae NCTC 418, Proteus vulgaris 1028 and E. coli RTEM. For this purpose, the corresponding strains are cultivated in Tryptic Soy Broth (Difco) and harvested by centrifugation in the late logarithmic growth phase (when required 50-100 mg/l of ampicillin are added to the medium towards the end of the log-phase in order to induce the β-lactamase). The thus-obtained bacteria mass is treated with 10 mM of phosphate buffer (pH 7.0); the cells are broken open with ultrasound (Biosonic III, Bronwill; 3-5 min. impulse) while cooling. The mixture is centrifuged (20,000 r/min.) for 20-30 minutes and there is obtained a clear crude extract which can be used as the enzyme source (β-lactamase source) and which can be frozen at -20° C. for several months without loss of activity.
(§2) The determination of the activity of the isolated β-lactamases can be carried out according to the method of O'Callaghan, C. H. et al. [Antimicr. Ag. Chemother. 1, 283-288 (1972)] with the chromogenic cephalosporin nitrocefin (Glaxo). The required experimental batch contains per ml of water: 50 mM of phosphate buffer (pH 7.0), 0.1 mM of nitrocefin and sufficient enzyme (β-lactamase) in order to attain a ΔA/min. of about 0.1. The cleavage of the substrate, which is associated with a colour change, is carried out at 37° C. and is followed quantitatively at 482 nm with a spectral photometer.
(§3) The above-described cleavage of the chromogenic substrate by β-lactamases (experiment B) can be inhibited by adding compounds of formula I (inhibitors). Since it has been shown that the inhibitors irreversibly inactivate the β-lactamase in a time-dependent reaction, the reaction (cleavage of the substrate) is started by adding the substrate, in each case after a pre-incubation period of β-lactamase with inhibitor of 15 minutes. The determination of the β-lactamase-inhibiting activity of compounds of formula I in which R^1 signifies a group readily cleavable by hydrolysis is carried out in each case in the presence or absence of an esterase. As a measurement for the affinity of the respective tested inhibitor to the β-lactamase, which represents a measurement of the strength of the inhibitor, there serves that concentration which inhibits to 50% (IC 50 in μM/l) the cleavage of the substrate (nitrocefin) carried out under the above experimental conditions (experiment B) in the absence of an inhibitor. 4 to 6 experiments with differing concentrations of inhibitor were carried out in order to determine the IC 50. The determination of the IC 50 was carried out graphically.

[2] = biological target: T1, β-lactamase from E. coli RTEM (Escherichia coli, UniProt P62593); experiment: β-lactamase inhibition, nitrocefin cleavage, isolated enzyme from E. coli RTEM; format: biochemical; conditions: 15 min pre-incubation, nitrocefin substrate, 37° C., pH 7.0
T1 construct: there is obtained a clear crude extract which can be used as the enzyme source; endogenous in cells; host or cells: E. coli RTEM, sonicated cells, clear crude extract
T1 sequence (P62593 24-286 limits assumed): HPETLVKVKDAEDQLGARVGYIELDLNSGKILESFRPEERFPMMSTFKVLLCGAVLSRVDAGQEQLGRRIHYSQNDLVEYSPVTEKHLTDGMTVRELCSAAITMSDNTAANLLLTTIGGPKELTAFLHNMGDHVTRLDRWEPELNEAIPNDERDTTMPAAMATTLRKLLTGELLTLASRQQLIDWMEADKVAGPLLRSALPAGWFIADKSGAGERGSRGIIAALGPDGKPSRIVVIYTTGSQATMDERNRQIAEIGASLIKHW
Procedure: as §1, §2, §3

[3] = in the absence of an esterase, read-out: β-Lactamase inhibition IC50, P. vulgaris 1028, -E
[4] = in the presence of an esterase, read-out: β-Lactamase inhibition IC50, P. vulgaris 1028, +E

CC(C=C1C(=O)N2[C@@H]1SC(C)(C)[C@@H]2C(=O)OCOC(=O)C(C)(C)C)=NO [Example 1, methylene-(2S,5R)-6-[2-(hydroxyimino)propylidene]pencillanate pivalate]
IC50 [1, 3]: 460 nM
IC50 [1, 4]: 35 nM
IC50 ([2]; in the absence of an esterase): 60 nM
IC50 ([2]; in the presence of an esterase): 2 nM

CC(=O)C[C@]1(N2CCOCC2)C(=O)N2[C@@H](C(=O)OCOC(=O)C(C)(C)C)C(C)(C)S[C@@H]21 [Example 3, methylene-(2S,5R,6S)-6-acetonyl-6-morpholino-penicillanate pivalate]
IC50 [1, 3]: 4100 nM
IC50 [1, 4]: 100 nM
IC50 ([2]; in the absence of an esterase): 900 nM
IC50 ([2]; in the presence of an esterase): 10 nM

CC(=O)C[C@]1(Sc2ccccc2)C(=O)N2[C@@H](C(=O)OCOC(=O)C(C)(C)C)C(C)(C)S[C@@H]21 [Example 4, methylene-(2S,5R,6S)-6-acetonyl-6-phenylthio-penicillanate pivalate]
IC50 [1, 3]: 3700 nM
IC50 [1, 4]: 300 nM
IC50 ([2]; in the absence of an esterase): 800 nM
IC50 ([2]; in the presence of an esterase): 2 nM

CC(=O)C[C@@]1(SC(C)=O)C(=O)N2[C@@H](C(=O)OCOC(=O)C(C)(C)C)C(C)(C)S[C@@H]21 [Example 5, methylene-(2S,5R,6R)-6-acetonyl-6-acetylthio-penicillanate pivalate]
IC50 [1, 3]: 4200 nM
IC50 [1, 4]: 200 nM
IC50 ([2]; in the absence of an esterase): 700 nM
IC50 ([2]; in the presence of an esterase): 10 nM
